Laboratory results published in patent US20040005537A1, “Method of identifying toxic agents using differential gene expression” (priority 2000, published 2004).

How the values were obtained:
[1] = cited from earlier work
[2] = test system: rat heart tissue; assay: GENECALLING differential gene expression analysis after dosing of serotonin modulating agents; format: in vivo, Sprague Dawley rats
Procedure: Control animals received sterile water or canola oil. The animals were sacrificed 24 hours following the last dose. Liver tissue was dissected from the animals, and total RNA was recovered from the dissected tissue. cDNA was prepared and the resulting samples were processed through using GENECALLING™ differential expression analysis as described in U.S. Pat. No. 5,871,697 and in Shimkets et al., Nature Biotechnology 17:798-803 (1999). The contents of these patents and publications are incorporated herein by reference in their entirety.
Thousands of gene fragments were initially found to be differentially expressed in rat heart tissue in response to serotonin modulating agents in. Genes fragments whose expression levels were modulated greater than ±1.5-fold were selected for further analysis.
Column 6 of Table 1, entitled “Function”, lists the type of classification assigned for the protein, based on its function. The 210 single nucleic acid sequences identified herein, are referred to herein as CARDIOTOX 1-210.

## CCN[C@@H](C)Cc1cccc(C(F)(F)F)c1 [dexfenfluramine]
[1]; grouping used to generate the distinguishing gene profiles
  classification as cardiotoxic or noncardiotoxic serotonin modulating agent: cardiotoxic
[1]; patients to which they are administered
  side effect reported in a subset of patients: valvular heart disease
[2]; CARDIOTOX 1
  Effects on Transcription Level: Novel gene fragment, 524 bp, 86% SI to mouse F-box protein FBX6b [AF176526]: +1.5 fold
[2]; CARDIOTOX 2
  Effects on Transcription Level: Novel gene fragment, 306 bp, 91% SI to mouse low density lipoprotein receptor related protein 4 [AB013874]: −1.8 fold
[2]; CARDIOTOX 3
  Effects on Transcription Level: Novel gene fragment, 540 bp, 97% SI to mouse skeletal muscle alpha-actin [X03766]: +2.3 fold
[2]; CARDIOTOX 4
  Effects on Transcription Level: Novel gene fragment, 80 bp: −1.6 fold
[2]; CARDIOTOX 5
  Effects on Transcription Level: Novel gene fragment, 957 bp, 99% SI to kidney injury associated moleculer HW036 [V80591]: −1.6 fold
[2]; CARDIOTOX 6
  Effects on Transcription Level: Novel gene fragment, 282 bp, 85% SI to human KIAA1515 protein [AB040948]: −1.7 fold
[2]; CARDIOTOX 7
  Effects on Transcription Level: Novel gene fragment, 405 bp, 88% SI to human 2-oxoglutarate dehydrogenase [D10523]: +1.5 fold
[2]; CARDIOTOX 8, GenBank AB010743
  Effects on Transcription Level: UCP2: −1.6 fold
[2]; CARDIOTOX 9, GenBank J03753
  Effects on Transcription Level: Plasma membrane Ca2 + ATPase-isoform 1: −1.6 fold
[2]; CARDIOTOX 10
  Effects on Transcription Level: Novel gene fragment, 242 bp, 97% SI to mouse HSP86 heat-shock protein [X16857]: +1.4 fold
[2]; CARDIOTOX 11
  Effects on Transcription Level: Novel gene fragment, 280 bp, 65% SI to human TRF1-interacting, ankyrin-related ADP-ribose polymerase [AF082556]: +1.4 fold
[2]; CARDIOTOX 12
  Effects on Transcription Level: Novel gene fragment, 348 bp, 88% SI to mouse Sec61 protein complex gamma subunit [U11027]: +1.3 fold
[2]; CARDIOTOX 13
  Effects on Transcription Level: Novel gene fragment 553 bp, 93% SI to mouse Sid329 [AB024984]: +1.4 fold
[2]; CARDIOTOX 14, GenBank AB020759
  Effects on Transcription Level: Kruppel-like transcription factor: +1.3 fold
[2]; CARDIOTOX 15, GenBank X62166
  Effects on Transcription Level: Ribosomal protein L3: +1.4 fold
[2]; CARDIOTOX 16, GenBank S78556
  Effects on Transcription Level: Glucose-regulated protein (GRP) 75: +1.4 fold
[2]; CARDIOTOX 17, GenBank M14050
  Effects on Transcription Level: Immunoglobulin heavy chain binding protein (BiP): +1.4 fold
[2]; CARDIOTOX 18, GenBank X56541
  Effects on Transcription Level: Membrane-spannining proteoglycan NG2: −1.4 fold
[2]; CARDIOTOX 19
  Effects on Transcription Level: Novel gene fragment, 1294 bp, 96% SI to mouse Sui 1 (elF) homolog [AF129888]: +1.6 fold
[2]; CARDIOTOX 20
  Effects on Transcription Level: Novel gene fragment, 723 bp, 85% SI to human translation initiation factor elF3 p40 subunit [U54559]: +1.6 fold
[2]; CARDIOTOX 21
  Effects on Transcription Level: Novel gene fragment, 1324 bp, 76% SI to human flavoprotein subunit of complex II [D30648]: +1.5 fold
[2]; CARDIOTOX 22
  Effects on Transcription Level: Novel gene fragment, 852 bp, 81% SI to human vacuolar proton-ATPase subunit M9.2 [Y15286]: +1.5 fold
[2]; CARDIOTOX 23
  Effects on Transcription Level: Novel gene fragment, 178 bp, 91% SI to mouse myosin light chain-2 isoform MLC-2a [S70785]: +1.6 fold
[2]; CARDIOTOX 24
  Effects on Transcription Level: Novel gene fragment, 167 bp, 90% SI to mouse Rab20 [X80332]: +1.7 fold
[2]; CARDIOTOX 25
  Effects on Transcription Level: Novel gene fragment, 1070 bp, 80% SI to human muscle-specific protein [AF249873]: +1.5 fold
[2]; CARDIOTOX 26
  Effects on Transcription Level: Novel gene fragment, 1143 bp, 82% SI to human sarcoma amplified sequence (SAS) [U01160]: +1.7 fold
[2]; CARDIOTOX 27
  Effects on Transcription Level: Novel gene fragment, 74 bp,75% SI to human secreted protein [X30160] (from patent database)/[X97578] (from patent database)/potential cytokine): +1.5 fold
[2]; CARDIOTOX 28
  Effects on Transcription Level: Novel gene fragment, 408 bp, 90% SI to human CGI-07 protein [AF132941]: +1.6 fold
[2]; CARDIOTOX 29
  Effects on Transcription Level: Novel gene fragment, 618 bp, 95% SI to rat progression related cDNA, ZNPE-120 3′ end partial sequence [patent database X90805]: +1.5 fold
[2]; CARDIOTOX 30
  Effects on Transcription Level: Novel gene fragment, 717 bp: +1.5 fold
[2]; CARDIOTOX 31
  Effects on Transcription Level: Novel gene fragment, 546 bp: +1.8 fold
[2]; CARDIOTOX 32
  Effects on Transcription Level: Novel gene fragment, 920 bp, 91% SI to human HSPC061 [AF161546]: +1.5 fold
[2]; CARDIOTOX 33
  Effects on Transcription Level: Novel gene fragment, 203 bp, 92% SI to rabbit sarcoplasmic reticulum glycoprotein [J04480]: −1.7 fold
[2]; CARDIOTOX 34
  Effects on Transcription Level: Novel gene fragment, 178 bp, 68% SI to mouse IgG receptor (beta-Fc-gamma-RII)[M63159]: +1.6 fold
[2]; CARDIOTOX 35, GenBank X87107
  Effects on Transcription Level: Ribosomal protein L6: +1.6 fold
[2]; CARDIOTOX 36, GenBank U31935
  Effects on Transcription Level: CAP2 protein (adenylyl cyclase-associated protein 2): +2.0 fold
[2]; CARDIOTOX 37, GenBank M63837
  Effects on Transcription Level: Alpha-platelet-derived growth factor receptor: +1.6 fold
[2]; CARDIOTOX 38, GenBank X74402
  Effects on Transcription Level: Rab GD1 alpha protein: −1.6 fold
[2]; CARDIOTOX 39, GenBank Y08355
  Effects on Transcription Level: PKC-zeta-interacting protein: +1.6 fold
[2]; CARDIOTOX 40, GenBank X65198
  Effects on Transcription Level: ERK or MAP kinase: +1.5 fold
[2]; CARDIOTOX 41, GenBank U37486
  Effects on Transcription Level: Peroxisomal multifunctional enzyme type II: +1.5 fold
[2]; CARDIOTOX 42, GenBank D30035
  Effects on Transcription Level: HBP23 (heme-binding protein 23 kDa): +1.7 fold
[2]; CARDIOTOX 43, GenBank U90725
  Effects on Transcription Level: Caveolae-associated protein: +3.0 fold
[2]; CARDIOTOX 44, GenBank AF025506
  Effects on Transcription Level: Prenylated rab acceptor 1 (PRA1): +1.5 fold
[2]; CARDIOTOX 45
  Effects on Transcription Level: Novel gene fragment, 337 bp, 88% SI to rabbit cardiac ryanodine receptor (RyR-2)[U50465]: −1.7 fold
[2]; CARDIOTOX 46
  Effects on Transcription Level: Novel gene fragment, 81 bp, 85% SI to human titin [X90568]: −2.2 fold
[2]; CARDIOTOX 47
  Effects on Transcription Level: Novel gene fragment, 428 bp, 86% SI to human titin [X90568]: −2.0 fold
[2]; CARDIOTOX 48
  Effects on Transcription Level: Novel gene fragment, 374 bp, 88% SI to human titin [X90568]: −2.3 fold
[2]; CARDIOTOX 49
  Effects on Transcription Level: Novel gene fragment, 428 bp, 85% SI to human titin [90568]: −2.2 fold
[2]; CARDIOTOX 50
  Effects on Transcription Level: Novel gene fragment, 1216 bp, 93% SI to mouse mircotubule-associated protein (MAP) 1B protein [AF115776]: −1.9 fold
[2]; CARDIOTOX 51
  Effects on Transcription Level: Novel gene fragment, 1115 bp, 83% SI to human KIAA0549 protein [AB011121]: −2.0 fold
[2]; CARDIOTOX 52
  Effects on Transcription Level: Novel gene fragment, 153 bp: −1.7 fold
[2]; CARDIOTOX 53
  Effects on Transcription Level: Novel gene fragment, 89 bp, 93% SI to human putative glialblastoma cell differentiation-related protein (GBDR1) [AF068195]: −1.6 fold
[2]; CARDIOTOX 54, GenBank U61266
  Effects on Transcription Level: Rho-associated kinase beta: −1.9 fold
[2]; CARDIOTOX 55, GenBank D13062
  Effects on Transcription Level: Adenylate kinase 3: +1.5 fold
[2]; CARDIOTOX 56, GenBank AF049878
  Effects on Transcription Level: Amyloid beta-peptide binding protein: +1.5 fold
[2]; CARDIOTOX 57, GenBank D12771
  Effects on Transcription Level: Mitochondrial adenine nuleotide translocator: +1.5 fold
[2]; CARDIOTOX 58
  Effects on Transcription Level: Novel gene fragment, 710 bp, 94% SI to mouse chromatin structural protein homolog Supt5 hp (Supt5 h)[U88539]: +3.8 fold
[2]; CARDIOTOX 60
  Effects on Transcription Level: Novel gene fragment, 186 bp, 66% SI to human N-acetylglucosaminyltransferase 1 (GlcNAc-TI)[M55621]: −1.7 fold
[2]; CARDIOTOX 61
  Effects on Transcription Level: Novel gene fragment, 238 bp, 95% SI to mouse MAP kinase-activated protein kinase 2 [X76850]: −2.1 fold
[2]; CARDIOTOX 62
  Effects on Transcription Level: Novel gene fragment, 173 bp, 70% SI to G protein-coupled receptor kinase GRK4 [X97568]: −6.1 fold
[2]; CARDIOTOX 63
  Effects on Transcription Level: Novel gene fragment, 133 bp, 77% SI to human apoptosis related protein hSARP3 [patent database: V19114]: −3.4 fold
[2]; CARDIOTOX 64
  Effects on Transcription Level: Novel gene fragment, 477 bp, 98% SI to peroxisomal phytanoyl-CoA hydroxylase (PHYH) [AF121345]: +5.0 fold
[2]; CARDIOTOX 65
  Effects on Transcription Level: Novel gene fragment, 413 bp, 95% SI to mouse dihydrolipoamide dehydrogenase (Dld) [U73445]: +1.9 fold
[2]; CARDIOTOX 66
  Effects on Transcription Level: Novel gene fragment, 726 bp, 76% SI to human succinate dehydrogenase flavoprotein subunit (SDH) [L21936]: −4.1 fold
[2]; CARDIOTOX 67
  Effects on Transcription Level: Novel gene fragment, 440 bp, 92% SI to mouse cytochrome c oxidase Vllc [X52940]: +3.6 fold
[2]; CARDIOTOX 68
  Effects on Transcription Level: Novel gene fragment, 276 bp, 80% SI to human titin [X90568]: −11.9 fold
[2]; CARDIOTOX 69
  Effects on Transcription Level: Novel gene fragment, 149 bp, 70% SI to human titin [X90568]: −5.5 fold
